Experimental data as given in article PMC6199744, “Development of Chemical Proteomics for the Folateome and Analysis of the Kinetoplastid Folateome” (ACS Infectious Diseases, 2018).
Read-outs that look alike come from different tables or passages of the source.

How the values were obtained:
Type in all cases: binding
[1] = molecular target: T1, HeLa cell extract proteins (Homo sapiens, UniProt O60313)
T1 construct: endogenous in cells; host or cells: HeLa cell extract
T1 sequence (O60313 88-960): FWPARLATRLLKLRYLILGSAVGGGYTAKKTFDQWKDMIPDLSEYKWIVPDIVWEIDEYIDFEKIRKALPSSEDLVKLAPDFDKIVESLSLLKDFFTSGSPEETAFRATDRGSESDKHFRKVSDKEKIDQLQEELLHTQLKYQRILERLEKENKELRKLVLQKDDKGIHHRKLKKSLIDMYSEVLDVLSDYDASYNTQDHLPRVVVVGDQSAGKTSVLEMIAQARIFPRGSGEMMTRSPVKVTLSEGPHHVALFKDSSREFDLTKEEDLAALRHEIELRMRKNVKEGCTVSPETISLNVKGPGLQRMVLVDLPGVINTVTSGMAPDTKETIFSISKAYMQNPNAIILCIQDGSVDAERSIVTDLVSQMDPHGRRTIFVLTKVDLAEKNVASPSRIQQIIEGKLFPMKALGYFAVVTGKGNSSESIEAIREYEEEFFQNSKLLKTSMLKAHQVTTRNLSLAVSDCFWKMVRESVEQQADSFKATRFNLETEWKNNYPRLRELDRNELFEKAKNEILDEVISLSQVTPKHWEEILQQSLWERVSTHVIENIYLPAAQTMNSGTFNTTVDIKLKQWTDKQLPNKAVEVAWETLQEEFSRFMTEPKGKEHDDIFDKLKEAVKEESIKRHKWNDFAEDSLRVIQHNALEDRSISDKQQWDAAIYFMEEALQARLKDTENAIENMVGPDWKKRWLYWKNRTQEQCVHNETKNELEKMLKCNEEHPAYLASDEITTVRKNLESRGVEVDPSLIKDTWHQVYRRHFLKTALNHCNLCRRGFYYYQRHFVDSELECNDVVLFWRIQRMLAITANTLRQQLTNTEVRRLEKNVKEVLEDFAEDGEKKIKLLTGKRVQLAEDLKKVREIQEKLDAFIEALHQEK

[2] = molecular target: T2, HeLa cell extract proteins (Homo sapiens, UniProt O43324)
T2 construct: endogenous in cells; host or cells: HeLa cell extract
T2 sequence (O43324 1-174): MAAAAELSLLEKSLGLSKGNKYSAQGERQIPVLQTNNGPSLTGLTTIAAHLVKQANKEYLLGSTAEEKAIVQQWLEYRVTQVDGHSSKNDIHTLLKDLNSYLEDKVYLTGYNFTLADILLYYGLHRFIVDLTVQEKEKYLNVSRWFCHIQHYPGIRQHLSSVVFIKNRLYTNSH

[3] = molecular target: T3, HeLa cell extract proteins (Homo sapiens, UniProt P05166)
T3 construct: endogenous in cells; host or cells: HeLa cell extract
T3 sequence (P05166 29-539): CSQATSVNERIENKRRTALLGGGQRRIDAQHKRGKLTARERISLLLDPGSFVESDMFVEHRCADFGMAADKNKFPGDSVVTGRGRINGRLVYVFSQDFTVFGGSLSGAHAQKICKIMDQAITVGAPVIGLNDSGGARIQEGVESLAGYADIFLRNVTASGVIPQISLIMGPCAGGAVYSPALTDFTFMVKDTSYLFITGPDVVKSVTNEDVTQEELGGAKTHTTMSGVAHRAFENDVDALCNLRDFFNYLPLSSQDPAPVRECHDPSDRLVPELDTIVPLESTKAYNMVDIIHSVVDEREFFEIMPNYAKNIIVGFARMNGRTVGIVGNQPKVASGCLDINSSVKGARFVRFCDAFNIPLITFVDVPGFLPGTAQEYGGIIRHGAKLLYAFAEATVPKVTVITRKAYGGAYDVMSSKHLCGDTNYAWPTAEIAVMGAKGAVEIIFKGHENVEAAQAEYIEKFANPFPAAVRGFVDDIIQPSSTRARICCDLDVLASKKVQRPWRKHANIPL

[4] = molecular target: T4, HeLa cell extract proteins (Homo sapiens, UniProt Q969S8)
T4 construct: endogenous in cells; host or cells: HeLa cell extract
T4 sequence (Q969S8 1-669): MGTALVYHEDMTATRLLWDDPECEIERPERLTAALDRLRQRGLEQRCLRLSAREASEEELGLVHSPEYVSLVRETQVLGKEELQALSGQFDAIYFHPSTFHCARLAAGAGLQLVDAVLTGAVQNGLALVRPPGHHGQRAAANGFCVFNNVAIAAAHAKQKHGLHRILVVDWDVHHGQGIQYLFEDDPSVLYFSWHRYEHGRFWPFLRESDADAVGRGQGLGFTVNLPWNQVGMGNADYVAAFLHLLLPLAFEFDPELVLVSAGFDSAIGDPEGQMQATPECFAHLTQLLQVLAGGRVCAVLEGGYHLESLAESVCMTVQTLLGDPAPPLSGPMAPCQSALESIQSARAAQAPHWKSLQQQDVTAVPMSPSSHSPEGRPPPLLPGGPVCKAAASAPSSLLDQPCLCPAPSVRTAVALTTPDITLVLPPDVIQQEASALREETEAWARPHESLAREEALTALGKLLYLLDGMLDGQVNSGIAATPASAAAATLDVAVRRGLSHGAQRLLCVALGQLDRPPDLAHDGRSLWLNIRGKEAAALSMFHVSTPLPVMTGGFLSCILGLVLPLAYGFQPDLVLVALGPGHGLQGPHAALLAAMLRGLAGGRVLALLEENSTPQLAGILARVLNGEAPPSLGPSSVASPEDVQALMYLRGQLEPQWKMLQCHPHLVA

[5] = molecular target: T5, HeLa cell extract proteins (Homo sapiens, UniProt P16083)
T5 construct: endogenous in cells; host or cells: HeLa cell extract
T5 sequence (P16083 1-231): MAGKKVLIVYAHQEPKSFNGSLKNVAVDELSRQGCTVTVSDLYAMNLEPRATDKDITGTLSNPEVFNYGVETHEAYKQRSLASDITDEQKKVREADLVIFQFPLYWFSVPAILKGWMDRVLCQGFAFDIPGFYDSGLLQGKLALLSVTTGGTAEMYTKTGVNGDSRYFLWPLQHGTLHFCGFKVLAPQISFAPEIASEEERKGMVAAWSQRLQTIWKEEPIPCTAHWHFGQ

[6] = molecular target: T6, HeLa cell extract proteins (Homo sapiens, UniProt Q6YHU6)
T6 construct: endogenous in cells; host or cells: HeLa cell extract

[7] = molecular target: T7, HeLa cell extract proteins (Homo sapiens, UniProt P32929)
T7 construct: endogenous in cells; host or cells: HeLa cell extract

[8] = molecular target: T8, HeLa cell extract proteins (Homo sapiens, UniProt P12277)
T8 construct: endogenous in cells; host or cells: HeLa cell extract

[9] = molecular target: T9, HeLa cell extract proteins (Homo sapiens, UniProt Q9BQB6)
T9 construct: endogenous in cells; host or cells: HeLa cell extract

[10] = HeLa, protein CKB (CREATINE KINASE B-TYPE.)
[11] = HeLa, protein EEF1E1 (EUKARYOTIC TRANSLATION ELONGATION FACTOR 1 EPSILON-1)

T7 sequence (P32929 whole entry): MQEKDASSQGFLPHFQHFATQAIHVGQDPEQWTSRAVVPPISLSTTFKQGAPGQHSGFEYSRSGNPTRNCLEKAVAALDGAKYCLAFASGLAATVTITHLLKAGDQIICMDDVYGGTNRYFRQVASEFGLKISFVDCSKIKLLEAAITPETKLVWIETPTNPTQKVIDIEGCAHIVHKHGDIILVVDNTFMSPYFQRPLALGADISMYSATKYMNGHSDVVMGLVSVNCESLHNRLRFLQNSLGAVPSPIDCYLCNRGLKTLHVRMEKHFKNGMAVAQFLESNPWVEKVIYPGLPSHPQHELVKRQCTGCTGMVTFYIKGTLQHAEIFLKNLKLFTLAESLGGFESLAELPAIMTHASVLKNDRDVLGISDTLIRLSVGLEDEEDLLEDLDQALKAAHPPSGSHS
T9 sequence (Q9BQB6 whole entry): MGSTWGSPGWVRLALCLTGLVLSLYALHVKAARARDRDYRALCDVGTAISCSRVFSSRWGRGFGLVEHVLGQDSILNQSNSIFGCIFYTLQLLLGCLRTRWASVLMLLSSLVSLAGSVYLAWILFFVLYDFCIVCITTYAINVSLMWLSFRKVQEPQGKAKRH
T6 sequence (Q6YHU6 whole entry): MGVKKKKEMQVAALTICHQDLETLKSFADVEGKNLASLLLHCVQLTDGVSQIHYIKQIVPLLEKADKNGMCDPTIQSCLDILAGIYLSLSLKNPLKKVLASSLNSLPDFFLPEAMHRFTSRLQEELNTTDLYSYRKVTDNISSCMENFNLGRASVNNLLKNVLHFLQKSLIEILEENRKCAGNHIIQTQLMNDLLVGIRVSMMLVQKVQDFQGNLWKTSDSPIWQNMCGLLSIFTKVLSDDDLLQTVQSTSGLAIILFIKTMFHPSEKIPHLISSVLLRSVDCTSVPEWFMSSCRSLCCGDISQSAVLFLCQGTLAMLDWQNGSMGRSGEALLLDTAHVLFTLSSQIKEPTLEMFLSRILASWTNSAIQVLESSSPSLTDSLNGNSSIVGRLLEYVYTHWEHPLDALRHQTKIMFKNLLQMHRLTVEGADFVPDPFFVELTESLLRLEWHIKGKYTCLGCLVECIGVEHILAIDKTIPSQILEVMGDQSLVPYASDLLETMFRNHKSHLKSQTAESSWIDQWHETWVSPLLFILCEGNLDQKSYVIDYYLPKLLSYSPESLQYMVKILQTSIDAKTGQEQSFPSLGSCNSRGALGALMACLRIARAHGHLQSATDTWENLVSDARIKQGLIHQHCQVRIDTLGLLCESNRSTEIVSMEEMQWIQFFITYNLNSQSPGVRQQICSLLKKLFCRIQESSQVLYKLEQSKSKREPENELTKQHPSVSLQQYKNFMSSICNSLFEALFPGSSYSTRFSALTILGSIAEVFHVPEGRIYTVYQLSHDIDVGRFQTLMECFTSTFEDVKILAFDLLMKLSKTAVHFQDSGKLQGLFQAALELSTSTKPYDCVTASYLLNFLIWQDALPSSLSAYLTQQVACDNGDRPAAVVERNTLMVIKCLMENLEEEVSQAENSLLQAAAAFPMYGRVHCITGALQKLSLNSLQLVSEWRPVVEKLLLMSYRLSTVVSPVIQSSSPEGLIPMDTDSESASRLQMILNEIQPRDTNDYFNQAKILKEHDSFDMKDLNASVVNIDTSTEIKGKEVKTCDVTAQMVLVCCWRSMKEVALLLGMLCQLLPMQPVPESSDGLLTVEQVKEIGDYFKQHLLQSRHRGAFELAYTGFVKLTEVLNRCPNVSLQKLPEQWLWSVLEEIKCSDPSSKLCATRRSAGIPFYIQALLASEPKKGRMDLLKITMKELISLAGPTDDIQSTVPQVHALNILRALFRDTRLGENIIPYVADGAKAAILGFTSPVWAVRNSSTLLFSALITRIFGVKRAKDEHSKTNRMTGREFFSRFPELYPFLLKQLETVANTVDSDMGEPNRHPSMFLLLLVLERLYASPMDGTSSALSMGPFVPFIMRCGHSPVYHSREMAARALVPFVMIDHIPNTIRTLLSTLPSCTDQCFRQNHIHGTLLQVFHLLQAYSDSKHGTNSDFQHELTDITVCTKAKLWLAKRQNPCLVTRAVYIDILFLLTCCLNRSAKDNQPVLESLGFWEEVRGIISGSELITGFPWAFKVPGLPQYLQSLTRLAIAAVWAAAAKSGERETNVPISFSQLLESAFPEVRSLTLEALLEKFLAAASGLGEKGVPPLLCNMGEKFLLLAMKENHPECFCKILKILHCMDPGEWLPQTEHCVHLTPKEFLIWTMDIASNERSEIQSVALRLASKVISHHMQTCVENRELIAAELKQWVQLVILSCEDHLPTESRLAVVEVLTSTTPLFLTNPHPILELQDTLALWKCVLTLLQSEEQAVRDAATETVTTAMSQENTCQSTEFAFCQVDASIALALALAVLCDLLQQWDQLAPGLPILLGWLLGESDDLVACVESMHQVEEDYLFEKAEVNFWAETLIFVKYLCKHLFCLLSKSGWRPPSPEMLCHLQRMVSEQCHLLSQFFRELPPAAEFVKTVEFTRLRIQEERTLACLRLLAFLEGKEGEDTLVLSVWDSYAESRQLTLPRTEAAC
T8 sequence (P12277 whole entry): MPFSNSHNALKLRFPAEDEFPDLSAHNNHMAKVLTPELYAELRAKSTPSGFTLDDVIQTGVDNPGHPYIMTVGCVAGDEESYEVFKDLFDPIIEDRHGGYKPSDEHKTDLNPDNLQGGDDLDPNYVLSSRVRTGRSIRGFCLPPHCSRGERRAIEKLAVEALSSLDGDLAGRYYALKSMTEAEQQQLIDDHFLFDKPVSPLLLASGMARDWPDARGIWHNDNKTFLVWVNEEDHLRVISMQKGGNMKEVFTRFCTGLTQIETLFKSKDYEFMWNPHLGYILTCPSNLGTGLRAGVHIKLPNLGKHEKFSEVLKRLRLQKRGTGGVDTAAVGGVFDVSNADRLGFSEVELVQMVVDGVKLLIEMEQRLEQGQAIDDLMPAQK

SMILES | fold changes relative to vehicle control ([1]; HeLa, protein OPA1) | fold changes relative to vehicle control ([2]; protein EEF1E1, HeLa) | fold changes relative to vehicle control ([3]; captured protein PCCB, HeLa) | fold changes relative to vehicle control ([4]; captured protein HDAC10, HeLa) | fold changes relative to vehicle control ([5]; HeLa, protein NQO2) | fold changes relative to vehicle control ([6]; captured protein THADA, HeLa) | fold changes relative to vehicle control ([7]; protein CTH, HeLa) | fold changes relative to vehicle control [8, 10] | fold changes relative to vehicle control ([9]; HeLa, protein VKORC1) | fold changes relative to vehicle control ([3]; HeLa, protein PCCB) | fold changes relative to vehicle control ([4]; HeLa, protein HDAC10) | fold changes relative to vehicle control ([5]; protein NQO2, HeLa) | fold changes relative to vehicle control ([6]; HeLa, captured protein THADA) | fold changes relative to vehicle control ([8]; HeLa, protein CKB) | other results
Nc1nc2cccc(-c3ccccc3)c2n1Cc1ccc(Cl)c(Cl)c1 [compound 3] | 1.01 | 1.12 | 1 | 0.9 | 0.99 | 1.09 | 0.91 | 0.92 fold | 1.03 | – | – | – | – | – | –
CCCCCCOc1ccc(Cc2cnc(N)nc2N)cc1 [compound 1] | 0.82 | 0.9 | 0.99 | 0.82 | 0.91 | 1.06 | 0.86 | 1.55 fold | 0.98 | – | – | – | – | – | –
NCCCNc1ccc(C(=O)NC(CCC(=O)O)C(=O)O)cc1 (stereo not drawn) [compound 7] | 0.94 | – | – | – | – | – | 0.87 | – | 1.11 | 1.17 | 0.95 | 1.04 | 1.12 | 0.93 | fold changes relative to vehicle control [2, 11]: 0.98
CCCCCCOc1cccc(Cc2cnc(N)nc2N)c1 [compound 2] | 1.02 | 1.19 | 0.92 | 0.88 | 0.7 | 1.16 | 1.43 | 2.55 fold | 1.05 | – | – | – | – | – | –
NCCOCCOCC(=O)Nc1nc2ncc(CNc3ccc(C(=O)NC(CCC(=O)O)C(=O)O)cc3)nc2c(=O)[nH]1 (stereo not drawn) [compound 6] | 0.87 | – | – | – | – | – | 0.95 | – | 1.04 | 0.91 | 0.82 | 0.72 | 1.11 | 1.23 | fold changes relative to vehicle control [2]: 1.02
Nc1nc2[nH]cc(CCc3ccc(C(=O)N[C@@H](CCC(=O)O)C(=O)O)cc3)c2c(=O)[nH]1 [PTX, pemetrexed] | – | – | – | – | – | – | – | – | – | – | – | – | – | – | fold changes relative to vehicle control [1]: 0.84; fold changes relative to vehicle control [2]: 0.89; fold changes relative to vehicle control [3]: 0.22; fold changes relative to vehicle control [4]: 0.85; fold changes relative to vehicle control [5]: 0.16; fold changes relative to vehicle control [6]: 0.98; fold changes relative to vehicle control [7]: 0.85; fold changes relative to vehicle control [8]: 1.11; fold changes relative to vehicle control [9]: 1.01
Nc1nc2c(c(=O)[nH]1)N(C=O)C(CNc1ccc(C(=O)N[C@@H](CCC(=O)O)C(=O)O)cc1)CN2 (stereo partly drawn) [LEU, leucovorin] | 0.88 | – | – | – | – | – | 0.82 | – | 1.02 | 0.97 | 0.95 | 1.1 | 1.06 | 1.01 | fold changes relative to vehicle control [2, 11]: 0.84
